Reference: US20130123367A1, “VINYLOGOUS CHALCONE DERIVATIVES AND THEIR MEDICAL USE” (MEDIZINISCHE UNIVERSITAT WIEN, priority 2010, published 2013)

system: melanoma cell line 518A2; assay: Cell proliferation assay using crystal violet, 518A2; type: cell-based; settings: Homo sapiens, 518A2; crystal violet assay; n = 3; 48 h incubation
Protocol: (§1) For quantification, cells are treated with crystal violet, a dye that stains proteins. After washing away of excess dye, the remaining crystal violet is dissolved in a sodium citrate solution. The solution is analyzed photometrically at 590 nm. The optical density of this solution depends on the concentration of crystal violet and therefore on the amount of cells. […] To reduce effects of evaporation, only the inner 60 wells of 96-well plates (coated with 0.1% gelatine solution for studies with HUVEC) were used for experiments.
(§2) Cells were seeded at a density of 5 000 cells per well in 100 μl growth medium (HUVEC) or 20 000 (HCT116), 15 000 (SW480 and 518A2) or 10 000 (HT29) cells per well in 200 μl growth medium in 55 wells per plate. 5 wells were filled with medium only. Additionally, a 96-well plate with cells in 12 wells and medium in 6 wells was prepared as T0-plate. The next day, additional 98 μl of growth medium were added in every well (only HUVEC).
(§3) Cells were treated with 2 μl of the working solution 24 h after seeding. Final compound concentrations in the well were 10 μM for the first round of screening. The final DMSO concentration was 0.5%. […] After finishing the addition of compounds, the T0-plate was stained with crystal violet for giving the cell density at time point zero. Before staining, the growth medium was poured away. Wells were filled with 50 μl crystal violet solution for 10 min. Then the staining solution was washed away with water. Since crystal violet is environmentally hazardous the waste was collected and disposed in an appropriate manner. After air drying of the plates the crystal violet on the cells was dissolved in 100 μl of sodium citrate solution, and the absorption was measured with a plate reader at 590 nm.
(§4) Mean values were corrected with the absorption of stained medium and the corrected absorption of T0 cells. Cell growth was calculated relative to DMSO control for data comparison. IC50 values (50% inhibition of cell growth) were determined with GraphPad Prism® (Version 4.03) using nonlinear regression (sigmoidal dose-response with variable slope).
(§5) Compounds showing an inhibition of proliferation of more than 50% at a concentration of 10 μM were defined as active, and their IC50-values were determined.

Row | IC50 | Compound
1 | 2750 nM | COc1ccccc1/C=C/C=C/C(=O)c1cc(OC)c(O)c(OC)c1
2 | 160 nM | COc1cc(C(=O)/C=C/C=C/c2ccccc2SC)cc(OC)c1OC
3 | > 10000 nM | CCOc1ccccc1C(=O)/C=C/c1ccc(OC)c2ccccc12

system: healthy peripheral blood mononuclear cells (PBMC); assay: Effect on healthy PBMC (CellTiter-Blue viability); settings: 48 h incubation; one individual; FIG. 8
Protocol: FIG. 8: Effect of compounds 1 and 22 according to the invention as well as the control drugs fludarabine and cyclophosphamide on the viability of healthy peripheral blood mononuclear cells (PBMC) in suspension culture after 48 h incubation. Data points represent one individual calculated in relation to the control. Viability was measured using the CellTiter Blue assay (Promega, Madison, Wis., USA), and cells incubated in solvent only were used as control.
For quantification, cells were treated with resazurin (7-hydroxy-3H-phenoxazin-3-one 10-oxide) as indicator of cell viability. The method is based on the finding that living cells are able to reduce the non-fluorescent blue dye into the pink colored and highly red fluorescent resorufine. After adding the substrate the cells are incubated for 2 to 4 hours. Then, the solution is analyzed at 560 nm Ex/590 nm Em on a fluorometer. Appropriate cell density for seeding and duration of treatment with the substrate were determined in preliminary experiments.
First, cells were seeded in 96 well plates and then growth medium was added to each well to get a final volume of 80 μl. Compounds to be tested were diluted with medium from a 10 mM stock solution in DMSO to get different concentrations, and 20 μl of these solutions were added to the wells. The final DMSO concentration was 0.5%. All treatments and controls were performed in at least triplicates. Cells were incubated at 37° C. and 5% CO2 for 48 h. Then, 20 μl substrate solution was added to the wells, plates were incubated for 3 hours and analyzed.
The impact of the compounds according to the invention on healthy cells was assessed using peripheral blood mononuclear cells (PBMC). Cell viability was tested using the CellTiter-Blue Cell Viability Assay (Promega, Madison, Wis., USA) as described in Example 7.

Row | Compound | viability of healthy PBMC in suspension culture (toxicity)
4 | O=P1(N(CCCl)CCCl)NCCCO1 (stereo not drawn) [cyclophosphamide, reference compound] | did not influence viability
5 | Nc1nc(F)nc2c1ncn2[C@@H]1O[C@H](CO)[C@@H](O)[C@@H]1O [fludarabine, reference compound] | the most toxic of the tested compounds

system: CLL cell lines MEC-1 and MEC-2; assay: Annexin V-FITC / propidium iodide staining, apoptosis in CLL cell lines; type: cell-based; settings: MEC-1 cells, 500 nM, 48 hours (FIG. 4b); called an outlier, not seen after 24 hours
Protocol: Apoptosis was detected using propidium iodide/Annexin V FACS staining (Bender MedSystems).
Annexin V binds to phosphatidylserine which is exposed at the cell surface during execution of apoptosis. First, cells were seeded out at a density of 1.5 to 2.5 million cells per well in 12 well plates and then growth medium was added to each well to get a final volume of 2.5 ml. Compounds to be tested were diluted with medium from a 10 mM stock solution in DMSO to get different concentrations and cells were treated with 25 μl of these solutions. The final DMSO concentration was 0.5%. All treatments and controls were performed twice. Cells were incubated at 37° C. and 5% CO2 for 24 h and 48 h. Then, growth medium was removed by centrifugation, the supernatant discarded and 200 μl of an Annexin V solution were added. After 10 minutes in the dark, cells were washed once with Annexin buffer and the solution removed by centrifugation. The supernatant was discarded again and cells were suspended in 200 μl of a propidium iodide solution. Cells were measured by flow cytometry with a total of 10 000 events. Data were analyzed with CellQuest Pro™.
Compounds 1 and 22 were also tested on the CLL cell lines MEC-1 and MEC-2 in comparison with fludarabine and cyclophosphamide, two compounds used in the treatment of hematological malignancies (MEC-1 is a fludarabine-resistant cell line).

Row | Compound | apoptosis induction
6 | O=P1(N(CCCl)CCCl)NCCCO1 (stereo not drawn) [cyclophosphamide, reference compound] | 40%

system: HUVEC; assay: Cell proliferation assay using crystal violet, HUVEC; type: cell-based; settings: Homo sapiens, n = 3, 48 h incubation, read-out: IC50 (nM) HUVEC (converted)
Protocol: as §1, §2, §3
(§6) Mean values were corrected with the absorption of stained medium and the corrected absorption of T0 cells. Cell growth was calculated relative to DMSO control for data comparison.

Row | Compound | IC50
7 | COc1cccc(/C=C/C=C/C(=O)c2cc(OC)c(OC)c(OC)c2)c1 | 3210 nM
8 | COc1cc(C(=O)/C=C/C=C/c2ccccc2Cl)cc(OC)c1OC | 1770 nM
9 | COc1cccc(/C=C/C=C/C(=O)c2ccccc2OC)c1 | 8810 nM
10 | COc1ccccc1/C=C/C=C/C(=O)c1ccc(Cl)c([N+](=O)[O-])c1 | 5630 nM
11 | C=Cc1ccccc1/C=C/C=C/C(=O)c1ccccc1OC | 760 nM
12 | COc1ccc(C(=O)/C=C/c2ccc(OC)c3ccccc23)cc1OC | > 10000 nM

system: melanoma cell line 518A2; assay: not given; settings: stated as comparison, no experiment described; read-out: IC50 value of cisplatin, comparison for melanoma cell line 518A2; cited from earlier work

Row | Compound | IC50
13 | N.N.[Cl][Pt][Cl] [cisplatin] | ~10 µM

system: colon cancer cell line SW480; assay: Cell proliferation assay using crystal violet, SW480; type: cell-based; settings: Homo sapiens, n = 3, 24 h incubation
Protocol: as §1, §2, §3, §4, §5

Row | IC50 | Compound
14 | 2680 nM | COc1ccccc1/C=C/C=C/C(=O)c1cc(OC)c(O)c(OC)c1
15 | 260 nM | COc1cc(C(=O)/C=C/C=C/c2ccccc2SC)cc(OC)c1OC
16 | > 10000 nM | CCOc1ccccc1C(=O)/C=C/c1ccc(OC)c2ccccc12

system: colon cancer cell line HT29; assay: Cell proliferation assay using crystal violet, HT29; type: cell-based; settings: Homo sapiens, HT-29, n = 3, 24 h incubation
Protocol: as §1, §2, §3
as §4, with “slope). […]” for “slope).”

Row | IC50 | Compound
17 | 5790 nM | COc1ccccc1/C=C/C=C/C(=O)c1cc(OC)c(O)c(OC)c1
18 | 240 nM | COc1cc(C(=O)/C=C/C=C/c2ccccc2SC)cc(OC)c1OC

system: HCT116 cell line; assay: Cell proliferation assay using crystal violet, HCT116; type: cell-based; settings: Homo sapiens, HCT-116, n = 3, 24 h incubation
Protocol: as §1, §2, §3, §6

Row | IC50 | Compound
19 | 4340 nM | COc1cc(C(=O)/C=C/C=C/c2ccccc2)cc(OC)c1OC
20 | 4500 nM | COc1cccc(/C=C/C=C/C(=O)c2cc(OC)c(OC)c(OC)c2)c1
21 | > 10000 nM | COc1cccc(/C=C/C=C/C(=O)c2ccccc2OC)c1
22 | 804 nM | C=Cc1ccccc1/C=C/C=C/C(=O)c1ccccc1OC
23 | > 10000 nM | COc1ccc(C(=O)/C=C/c2ccc(OC)c3ccccc23)cc1OC
24 | 6850 nM | COc1ccccc1C(=O)/C=C/c1ccc(OC)c2ccccc12
